Consider 1 compound from article PMC9931918, “Conjugation to a cell-penetrating peptide drives the tumour accumulation of the GLP1R antagonist exendin(9-39)” (European Journal of Nuclear Medicine and Molecular Imaging, 2022).

For orientation: tissue uptake means the share of the injected amount in each gram of the tissue.

Data set [1] relates to CHL-GLP1R cells. The data set can be described thus: Binding and internalisation assay of 111In-labelled exendin variants on GLP1R-positive cells. The data set is classed as cell-based, Chinese hamster.
A short description of data set [2]: in vivo. More on the design: species or system BALB/c nude mice. To be noted: BALB/c nude, mouse, iv, 20 pmol/mouse, total radioactivity. The method, then: Mice were injected subcutaneously on the right flank with 0.2 mL of a cell suspension containing 15,000,000 INS-1 cells/mL in RPMI (3,000,000 cells/mouse). When the tumours were 2–5 mm in diameter, mice were randomly divided into groups and the experiment was performed. All mice were intravenously injected with 20 pmol/mouse (0.37 MBq/mouse) of the corresponding radiolabelled exendin variant in approximately 200 μL PBS/0.5% BSA. 12 mice received [^111In]In-DTPA-exendin-4 (referred to as exendin-4), 12 mice received [^111In]In-DTPA-exendin-4-Pen (referred to as exendin-4-Pen), 11 mice received [^111In]In-DTPA-exendin(9-39) (referred to as exendin(9-39) and 11 mice received [^111In]In-DTPA-exendin(9-39)-Pen (referred to as exendin(9-39)-Pen). To determine non-specific uptake, an excess of unlabelled peptide was injected (blocking group). A 100-fold excess of unlabelled DTPA-exendin-4 or DTPA-exendin(9-39) was co-injected (5 or 6 mice per group). Blocking groups were only included at the 4 h timepoint, to reduce the number of mice used as a control. After 1 h and 4 h after injection, mice were euthanized by CO2/O2 asphyxiation. Blood, tumours and relevant tissues (muscle, heart, lung, spleen, pancreas, kidney, liver, stomach, duodenum and colon) of all animals were dissected, weighed and measured in a gamma-counter (2480 Wizard 3”, LKB/Wallace, Perkin-Elmer, Waltham, MA, USA). The percentage injected dose per gram tissue (% ID/g) was determined for each tissue, based on the cpm measured for diluted injection mixtures (standards). For the statistical analysis, the data were log transformed to correct for differences in the intra-group spread and ensure a normal distribution. The difference in tumour uptake between the four compounds was evaluated separately for each timepoint, with a one-way ANOVA and Tukey’s post hoc test. We accepted a type I alpha error of 0.05. The number of animals per group was selected assuming an SD of 10% of the mean, to reach a statistical power of 80% (beta type error = 0.2).

Each structure is given as a SMILES string.

With `CC[C@H](C)[C@H](NC(=O)[C@H](Cc1ccccc1)NC(=O)[C@H](CC(C)C)NC(=O)[C@H](CCCNC(=N)N)NC(=O)[C@@H](NC(=O)[C@H](C)NC(=O)[C@H](CCC(=O)O)NC(=O)[C@H](CCC(=O)O)NC(=O)[C@H](CCC(=O)O)NC(=O)[C@H](CCSC)NC(=O)[C@H](CCC(N)=O)NC(=O)[C@H](CCCCN)NC(=O)[C@H](CO)NC(=O)[C@H](CC(C)C)NC(=O)[C@@H](N)CC(=O)O)C(C)C)C(=O)N[C@@H](CCC(=O)O)C(=O)N[C@@H](Cc1c[nH]c2ccccc12)C(=O)N[C@@H](CC(C)C)C(=O)N[C@@H](CCCCN)C(=O)N[C@@H](CC(N)=O)C(=O)NCC(=O)NCC(=O)N1CCC[C@H]1C(=O)N[C@@H](CO)C(=O)N[C@@H](CO)C(=O)NCC(=O)N[C@@H](C)C(=O)N1CCC[C@H]1C(=O)N1CCC[C@H]1C(=O)N1CCC[C@H]1C(=O)N[C@@H](CO)C(=O)N[C@@H](CCCNC(=N)N)C(=O)N[C@@H](CCC(N)=O)C(=O)N[C@H](C(=O)N[C@@H](CCCCN)C(=O)N[C@H](C(=O)N[C@@H](Cc1c[nH]c2ccccc12)C(=O)N[C@@H](Cc1ccccc1)C(=O)N[C@@H](CCC(N)=O)C(=O)N[C@@H](CC(N)=O)C(=O)N[C@@H](CCCNC(=N)N)C(=O)N[C@@H](CCCNC(=N)N)C(=O)N[C@@H](CCSC)C(=O)N[C@@H](CCCCN)C(=O)N[C@@H](Cc1c[nH]c2ccccc12)C(=O)N[C@@H](CCCCN)C(=O)N[C@@H](CCCCNC(=O)CN(CCN(CCN(CC(=O)O)CC(=O)O)CC(=O)O)CC(=O)O)C(N)=O)[C@@H](C)CC)[C@@H](C)CC` [[111In]In-exendin(9-39)-Pen, metal not drawn], in data set [1] (30 minutes and 4 hours incubation at 37 °C, approx. 50 pM, acid-releasable fraction), the “binding to CHL-GLP1R cells compared with the unconjugated peptide” value was “increased binding”. In addition, the “internalisation (percentage of the total activity added)” value in data set [1] (CHL-GLP1R cells, 4 hours incubation at 37 °C, approx. 50 pM 111In-labelled peptide in RPMI-1640 with 0.5% BSA, acid wash then NaOH lysis, γ-counter, mean ± SD of three wells) is 17.7 ± 0.5%. In addition, in data set [2] (pancreatic uptake), the tissue uptake at 1 h was determined as 2.2 ± 0.3 %ID/g and the tissue uptake at 4 h turned out to be 1.2 ± 0.2 %ID/g. In addition, in data set [2] (tumour accumulation), the tissue uptake at 1 h came to 8.6 ± 2.2 %ID/g and the tissue uptake at 4 h was found to be 6.6 ± 1.2 %ID/g.
